≈ marks a conversion by molar mass, not a printed value. Calls of active or inactive are those of the source. No cut-off for these calls is given here.
Legend:
Streptococcus pyogenes = assay: Antimicrobial activity against Streptococcus pyogenes MTCC 442; assay type: functional
Pseudomonas aeruginosa = assay: Antimicrobial activity against Pseudomonas aeruginosa MTCC 1688; assay type: functional
Staphylococcus aureus = assay: Antimicrobial activity against Staphylococcus aureus MTCC 96; assay type: functional
Escherichia coli = assay: Antimicrobial activity against Escherichia coli MTCC 443; assay type: functional
Aspergillus clavatus [1] = assay: Antimicrobial activity against Aspergillus clavatus MTCC 1323; assay type: functional
Candida albicans = assay: Antimicrobial activity against Candida albicans MTCC 227; assay type: functional
[2] = Cytotoxicity in Schizosaccharomyces pombe assessed as cell viability at 4 ug/ml (reference value: 94.67 +/- 1.53%); conditions: Schizosaccharomyces pombe cells, read-out: Activity
[3] = Cytotoxicity in Schizosaccharomyces pombe assessed as cell viability at 8 ug/ml (reference value: 94.67 +/- 1.53%); conditions: Schizosaccharomyces pombe cells, read-out: Activity
Plasmodium falciparum = assay: Antimalarial activity against Plasmodium falciparum; assay type: functional
[4] = Cytotoxicity in Schizosaccharomyces pombe assessed as cell viability at 10 ug/ml (reference value: 94.67 +/- 1.53%); conditions: Schizosaccharomyces pombe cells, read-out: Activity
[5] = Cytotoxicity in Schizosaccharomyces pombe assessed as cell viability at 2 ug/ml (reference value: 94.67 +/- 1.53%); conditions: Schizosaccharomyces pombe cells, read-out: Activity
[6] = system: Schizosaccharomyces pombe; assay: Genotoxicity in Schizosaccharomyces pombe assessed as induction of DNA damage by measuring appearance of DNA smear DNA band at 2 to 10 ug/ml by agarose gel electrophoresis
Dihydrofolate reductase = target: T1, Dihydrofolate reductase (Bos taurus, UniProt P00376); assay: Inhibition of bovine liver DHFR
T1 sequence (P00376 whole entry): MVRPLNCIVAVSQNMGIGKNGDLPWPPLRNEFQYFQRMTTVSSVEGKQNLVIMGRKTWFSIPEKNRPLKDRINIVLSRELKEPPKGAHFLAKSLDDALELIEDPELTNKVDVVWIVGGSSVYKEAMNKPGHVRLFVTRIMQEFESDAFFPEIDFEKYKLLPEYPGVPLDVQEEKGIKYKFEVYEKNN

[7] = Cytotoxicity in Schizosaccharomyces pombe assessed as cell viability at 6 ug/ml (reference value: 94.67 +/- 1.53%); conditions: Schizosaccharomyces pombe cells, read-out: Activity
Aspergillus clavatus [8] = conditions: MTCC 1323

## O=C(O)c1cn(C2CC2)c2cc(N3CCNCC3)c(F)cc2c1=O [CIPROFLOXACIN]
Streptococcus pyogenes
  MIC: 151 µM (≈ 50 µg/mL)
Pseudomonas aeruginosa
  MIC: 75 µM (≈ 24.9 µg/mL)
Staphylococcus aureus
  MIC: 151 µM (≈ 50 µg/mL)
Escherichia coli
  MIC: 75 µM (≈ 24.9 µg/mL)

## COC1=CC(=O)C[C@@H](C)[C@]12Oc1c(Cl)c(OC)cc(OC)c1C2=O [GRISEOFULVIN]
Aspergillus clavatus [1]
  MIC: 284 µM (≈ 100 µg/mL)
Candida albicans
  MIC: 1420 µM (≈ 501 µg/mL)

## Clc1ccc(/C=N/c2nc3ccccc3s2)cc1
[2]
  viability at 4 ug/ml: 87%
[3]
  viability at 8 ug/ml: 78%
Aspergillus clavatus [1]
  MIC: 1840 µM (≈ 501 µg/mL)
Streptococcus pyogenes
  MIC: 368 µM (≈ 100 µg/mL)
Plasmodium falciparum
  IC50: 353 nM
Candida albicans
  MIC: 3680 µM (≈ 1000 µg/mL)
[4]
  viability at 10 ug/ml: 75.3%
Pseudomonas aeruginosa
  MIC: 460 µM (≈ 125 µg/mL)
[5]
  viability at 2 ug/ml: 89.3%
[6]
  Activity: Toxic
Dihydrofolate reductase
  IC50: 41.5 nM
[7]
  viability at 6 ug/ml: 82.7%
Staphylococcus aureus
  MIC: 460 µM (≈ 125 µg/mL)
Escherichia coli
  MIC: 735 µM (≈ 200 µg/mL)

## Oc1ccc(/C=N/c2nc3ccccc3s2)cc1
[2]
  viability at 4 ug/ml: 75%
[3]
  viability at 8 ug/ml: 68.3%
Streptococcus pyogenes
  MIC: 1970 µM (≈ 500 µg/mL)
Plasmodium falciparum
  IC50: 386 nM
Candida albicans
  MIC: inactive
[4]
  viability at 10 ug/ml: 65.3%
Pseudomonas aeruginosa
  MIC: 394 µM (≈ 100 µg/mL)
[5]
  viability at 2 ug/ml: 87%
[6]
  Activity: Toxic
Dihydrofolate reductase
  IC50: 51.2 nM
[7]
  viability at 6 ug/ml: 69.3%
Staphylococcus aureus
  MIC: 984 µM (≈ 250 µg/mL)
Escherichia coli
  MIC: 394 µM (≈ 100 µg/mL)
Aspergillus clavatus [8]
  MIC: inactive

## CC1(C)S[C@@H]2[C@H](NC(=O)[C@H](N)c3ccccc3)C(=O)N2[C@H]1C(=O)O [AMPICILLIN]
Streptococcus pyogenes
  MIC: 286 µM (≈ 99.9 µg/mL)
Pseudomonas aeruginosa
  MIC: 286 µM (≈ 99.9 µg/mL)
Staphylococcus aureus
  MIC: 716 µM (≈ 250 µg/mL)
Escherichia coli
  MIC: 286 µM (≈ 99.9 µg/mL)

## O=[N+]([O-])c1cccc(/C=N/c2nc3ccccc3s2)c1
[2]
  viability at 4 ug/ml: 84%
[3]
  viability at 8 ug/ml: 74.7%
Aspergillus clavatus [1]
  MIC: 883 µM (≈ 250 µg/mL)
Streptococcus pyogenes
  MIC: 883 µM (≈ 250 µg/mL)
Plasmodium falciparum
  IC50: 201 nM
Candida albicans
  MIC: 1770 µM (≈ 501 µg/mL)
[4]
  viability at 10 ug/ml: 70.3%
Pseudomonas aeruginosa
  MIC: 221 µM (≈ 62.6 µg/mL)
[5]
  viability at 2 ug/ml: 88.7%
[6]
  Activity: Toxic
Dihydrofolate reductase
  IC50: 31.2 nM
[7]
  viability at 6 ug/ml: 79.3%
Staphylococcus aureus
  MIC: 707 µM (≈ 200 µg/mL)
Escherichia coli
  MIC: 883 µM (≈ 250 µg/mL)

## CCc1nc(N)nc(N)c1-c1ccc(Cl)cc1 [PYRIMETHAMINE]
Plasmodium falciparum
  IC50: 1000 nM

## O=C(N[C@H](CO)[C@H](O)c1ccc([N+](=O)[O-])cc1)C(Cl)Cl [CHLORAMPHENICOL]
Streptococcus pyogenes
  MIC: 155 µM (≈ 50.1 µg/mL)
Pseudomonas aeruginosa
  MIC: 155 µM (≈ 50.1 µg/mL)
Staphylococcus aureus
  MIC: 155 µM (≈ 50.1 µg/mL)
Escherichia coli
  MIC: 155 µM (≈ 50.1 µg/mL)

## Clc1ccc(/C=N/c2nc3ccccc3s2)cc1Cl
[2]
  viability at 4 ug/ml: 84.3%
[3]
  viability at 8 ug/ml: 77%
Aspergillus clavatus [1]
  MIC: 1630 µM (≈ 502 µg/mL)
Streptococcus pyogenes
  MIC: 327 µM (≈ 100 µg/mL)
Plasmodium falciparum
  IC50: 980 nM
Candida albicans
  MIC: inactive
[4]
  viability at 10 ug/ml: 73.3%
Pseudomonas aeruginosa
  MIC: 409 µM (≈ 126 µg/mL)
[5]
  viability at 2 ug/ml: 89%
[6]
  Activity: Toxic
[7]
  viability at 6 ug/ml: 81%
Staphylococcus aureus
  MIC: 409 µM (≈ 126 µg/mL)
Escherichia coli
  MIC: 409 µM (≈ 126 µg/mL)

## CCn1cc(C(=O)O)c(=O)c2cc(F)c(N3CCNCC3)cc21 [NORFLOXACIN]
Streptococcus pyogenes
  MIC: 31 µM (≈ 9.9 µg/mL)
Pseudomonas aeruginosa
  MIC: 31 µM (≈ 9.9 µg/mL)
Staphylococcus aureus
  MIC: 31 µM (≈ 9.9 µg/mL)
Escherichia coli
  MIC: 31 µM (≈ 9.9 µg/mL)

## C(=N\c1nc2ccccc2s1)/c1ccc[nH]1
[2]
  viability at 4 ug/ml: 82.3%
[3]
  viability at 8 ug/ml: 71.7%
Aspergillus clavatus [1]
  MIC: 4400 µM (≈ 1000 µg/mL)
Streptococcus pyogenes
  MIC: 440 µM (≈ 100 µg/mL)
Plasmodium falciparum
  IC50: 1910 nM
Candida albicans
  MIC: 2200 µM (≈ 500 µg/mL)
[4]
  viability at 10 ug/ml: 69.7%
Pseudomonas aeruginosa
  MIC: 1100 µM (≈ 250 µg/mL)
[5]
  viability at 2 ug/ml: 87%
[6]
  Activity: Toxic
[7]
  viability at 6 ug/ml: 74.3%
Staphylococcus aureus
  MIC: 551 µM (≈ 125 µg/mL)
Escherichia coli
  MIC: 881 µM (≈ 200 µg/mL)

## Fc1ccc(/C=N/c2nc3ccccc3s2)cc1
[2]
  viability at 4 ug/ml: 81.7%
[3]
  viability at 8 ug/ml: 72.3%
Aspergillus clavatus [1]
  MIC: 1950 µM (≈ 501 µg/mL)
Streptococcus pyogenes
  MIC: 391 µM (≈ 100 µg/mL)
Plasmodium falciparum
  IC50: 1480 nM
Candida albicans
  MIC: 1950 µM (≈ 501 µg/mL)
[4]
  viability at 10 ug/ml: 71.7%
Pseudomonas aeruginosa
  MIC: 976 µM (≈ 250 µg/mL)
[5]
  viability at 2 ug/ml: 86.3%
[6]
  Activity: Toxic
[7]
  viability at 6 ug/ml: 73%
Staphylococcus aureus
  MIC: 244 µM (≈ 62.5 µg/mL)
Escherichia coli
  MIC: 781 µM (≈ 200 µg/mL)

## C(=N\c1nc2ccccc2s1)/c1ccco1
[2]
  viability at 4 ug/ml: 73%
[3]
  viability at 8 ug/ml: 62.3%
Streptococcus pyogenes
  MIC: 439 µM (≈ 100 µg/mL)
Plasmodium falciparum
  IC50: 1860 nM
Candida albicans
  MIC: 4380 µM (≈ 1000 µg/mL)
[4]
  viability at 10 ug/ml: 61.7%
Pseudomonas aeruginosa
  MIC: 877 µM (≈ 200 µg/mL)
[5]
  viability at 2 ug/ml: 78.7%
[6]
  Activity: Toxic
[7]
  viability at 6 ug/ml: 64%
Staphylococcus aureus
  MIC: 877 µM (≈ 200 µg/mL)
Escherichia coli
  MIC: 548 µM (≈ 125 µg/mL)
Aspergillus clavatus [8]
  MIC: inactive

## NYSTATIN
Candida albicans
  MIC: 108 µM
Aspergillus clavatus [8]
  MIC: 108 µM

## O=[N+]([O-])c1ccccc1/C=N/c1nc2ccccc2s1
[2]
  viability at 4 ug/ml: 82%
[3]
  viability at 8 ug/ml: 77%
Streptococcus pyogenes
  MIC: 221 µM (≈ 62.6 µg/mL)
Plasmodium falciparum
  IC50: 396 nM
Candida albicans
  MIC: 3530 µM (≈ 1000 µg/mL)
[4]
  viability at 10 ug/ml: 72.3%
Pseudomonas aeruginosa
  MIC: 707 µM (≈ 200 µg/mL)
[5]
  viability at 2 ug/ml: 84.3%
[6]
  Activity: Toxic
Dihydrofolate reductase
  IC50: 53.1 nM
[7]
  viability at 6 ug/ml: 79.7%
Staphylococcus aureus
  MIC: 353 µM (≈ 100 µg/mL)
Escherichia coli
  MIC: 442 µM (≈ 125 µg/mL)
Aspergillus clavatus [8]
  MIC: inactive

## C(=N\c1nc2ccccc2s1)/c1cccs1
[2]
  viability at 4 ug/ml: 81.7%
[3]
  viability at 8 ug/ml: 73%
Streptococcus pyogenes
  MIC: 410 µM (≈ 100 µg/mL)
Plasmodium falciparum
  IC50: 1020 nM
Candida albicans
  MIC: 4100 µM (≈ 1000 µg/mL)
[4]
  viability at 10 ug/ml: 67%
Pseudomonas aeruginosa
  MIC: 410 µM (≈ 100 µg/mL)
[5]
  viability at 2 ug/ml: 86%
[6]
  Activity: Toxic
[7]
  viability at 6 ug/ml: 80.7%
Staphylococcus aureus
  MIC: 410 µM (≈ 100 µg/mL)
Escherichia coli
  MIC: 256 µM (≈ 62.6 µg/mL)
Aspergillus clavatus [8]
  MIC: inactive

## Brc1ccc(/C=N/c2nc3ccccc3s2)cc1
[2]
  viability at 4 ug/ml: 73.3%
[3]
  viability at 8 ug/ml: 68.3%
Streptococcus pyogenes
  MIC: 633 µM (≈ 201 µg/mL)
Plasmodium falciparum
  IC50: 288 nM
Candida albicans
  MIC: inactive
[4]
  viability at 10 ug/ml: 66.3%
Pseudomonas aeruginosa
  MIC: 396 µM (≈ 126 µg/mL)
[5]
  viability at 2 ug/ml: 77.3%
[6]
  Activity: Toxic
Dihydrofolate reductase
  IC50: 45.5 nM
[7]
  viability at 6 ug/ml: 72.3%
Staphylococcus aureus
  MIC: 791 µM (≈ 251 µg/mL)
Escherichia coli
  MIC: 198 µM (≈ 62.8 µg/mL)
Aspergillus clavatus [8]
  MIC: inactive
